Results published in patent US20240083886A1, “HETEROCYCLIC GLP-1 AGONISTS” (Gasherbrum Bio, Inc., priority 2020, published 2024).
pEC50: −log10 of the molar value.

Biological target: GLP-1 Receptor (Homo sapiens, UniProt P43220)
Test: GLP-1R agonist cAMP stimulation assay
Format: cell-based
Details: not given
Protocol: Activation of GLP-1 receptor is known to stimulate cyclic AMP (cAMP) production in cells which indicates primary coupling to the Gαs subunit of the G protein heterotrimeric complex.
To optimize functional activity directed toward Gαs coupling, a HEK293/CRE-Luc cell line developed by HDB stably expressing the GLP-1 Receptor was used. 200× concentration of compound working solutions were prepared (Agilent Technologies Bravo) with ½ log serial dilution in 384-well Echo LDV plate (Labcyte, Cat #LP-0200). 50 nL/well 200× concentration of compound working solutions were moved to 384-well white low volume plate (Greiner, Cat #784075) using Labcyte ECHO550. 1×10^5 cells/mL HEK293/GLP1R/CRE-LUC(HD Biosciences) cell suspensions prepared with assay buffer[DPBS containing 0.5 mM IBMX(Sigma, Cat #15879) and 0.1% BSA (GENVIEW, Cat #FA016-100 g)], 10 uL cell suspensions were added to each well of previous generated assay plate which already contains 50 nl compound at 200×concentration using ThermoFisher Multidrop Combi (1000 cells/well). Seal the plate and incubate at 37° C. with 5% CO2 for 30 min.
After incubation the cAMP assay signal was generated using cAMP dynamic 2 Kit (Cisbio). 5 μL cAMP-d2 working solution was added to each well, followed with 5 μL Anti-cAMP antibody-cryptate working solution added to each well using ThermoFisher Multidrop Combi. Incubate at room temperature for 1 hour protected from light. Read the fluorescence at 665 and 615 nm with Reader PerkinElmer EnVision.
% Activity=100%×(mean RLU of test sample−mean RLU of vehicle control)/(mean RLU of MAX control−mean RLU of vehicle control))

Sequence of GLP-1 Receptor (P43220 24-463, species assumed): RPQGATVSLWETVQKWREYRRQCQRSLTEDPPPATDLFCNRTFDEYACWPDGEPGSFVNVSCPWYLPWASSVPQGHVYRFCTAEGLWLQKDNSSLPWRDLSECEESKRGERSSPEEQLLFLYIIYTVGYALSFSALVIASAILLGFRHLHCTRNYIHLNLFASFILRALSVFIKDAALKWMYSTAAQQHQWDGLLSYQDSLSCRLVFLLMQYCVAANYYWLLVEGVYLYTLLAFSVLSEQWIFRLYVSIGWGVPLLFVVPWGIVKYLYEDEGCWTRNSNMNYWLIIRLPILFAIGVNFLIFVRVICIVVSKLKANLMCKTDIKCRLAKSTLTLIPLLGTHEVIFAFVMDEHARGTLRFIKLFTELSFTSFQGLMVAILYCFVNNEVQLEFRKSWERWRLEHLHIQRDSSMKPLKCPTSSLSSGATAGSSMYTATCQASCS

Row | pEC50 | Compound
1 | 8.48 | COCc1nnc(-c2cc3nc(CN4CCC(Oc5cccc(Cc6ccc(Cl)cc6F)n5)CC4)n(C[C@@H]4CCO4)c3cn2)[nH]1 [Compound 183a, 2-[(4-chloro-2-fluorophenyl)methyl]-6-{[1-({6-[5-(methoxymethyl)-4H-1,2,4-triazol-3-yl]-3-{[(2S)-oxetan-2-yl]methyl}-3H-imidazo[4,5-c]pyridin-2-yl}methyl)piperidin-4-yl]oxy}pyridine]
2 | 8.54 | Cc1nnc(-c2cnc3c(c2)nc(CN2CCC(Oc4nc(Cc5ccc(Cl)cc5)ncc4F)CC2)n3C[C@@H]2CCO2)[nH]1 [Compound 162a, 2-[(4-chlorophenyl)methyl]-5-fluoro-4-[(1-{[6-(5-methyl-4H-1,2,4-triazol-3-yl)-3-{[(2S)-oxetan-2-yl]methyl}-3H-imidazo[4,5-b]pyridin-2-yl]methyl}piperidin-4-yl)oxy]pyrimidine]
3 | 10.62 | N#Cc1nnc(-c2cc3nc(CN4CCC(Oc5nc(Cc6ccc(Cl)cc6F)ncc5F)CC4)n(C[C@@H]4CCO4)c3cn2)[nH]1 [Compound 193a, 5-(2-{[4-({2-[(4-chloro-2-fluorophenyl)methyl]-5-fluoropyrimidin-4-yl}oxy)piperidin-1-yl]methyl}-3-{[(2S)-oxetan-2-yl]methyl}-3H-imidazo[4,5-c]pyridin-6-yl)-4H-1,2,4-triazole-3-carbonitrile]

More lines, now with the values behind:

Row | Compound | pEC50
4 | FC(F)(F)c1nnc(-c2ccc3c(c2)nc(CN2CCC(Oc4ccnc(Cc5ccc(Cl)cc5)n4)CC2)n3C[C@@H]2CCO2)[nH]1 [Compound 106a, 2-{[4-({2-[(4-chlorophenyl)methyl]pyrimidin-4-yl}oxy)piperidin-1-yl]methyl}-1-{[(2S)-oxetan-2-yl]methyl}-5-[5-(trifluoromethyl)-4H-1,2,4-triazol-3-yl]-1H-1,3-benzodiazole] | 10.01
5 | Cc1ncc(-c2ccc3c(c2)nc(CN2CCC(Oc4ccnc(Cc5ccc(Cl)cc5)n4)CC2)n3C[C@@H]2CCO2)s1 [Compound 129a, 2-{[4-({2-[(4-chlorophenyl)methyl]pyrimidin-4-yl}oxy)piperidin-1-yl]methyl}-5-(2-methyl-1,3-thiazol-5-yl)-1-{[(2S)-oxetan-2-yl]methyl}-1H-1,3-benzodiazole] | 8.12

Same assay, conditions: HEK293/GLP1R/CRE-LUC cells, cAMP dynamic 2 Kit (Cisbio), 30 min incubation at 37° C.; read-out: EC50

Row | pEC50 | Compound
6 | 8.40 | COC1(Cn2c(CN3CCC(Oc4cccc(Cc5ccc(Cl)cc5F)n4)CC3)nc3cc(-c4nnc(C(F)(F)F)[nH]4)ncc32)CC1 [Compound 192, 2-[(4-chloro-2-fluorophenyl)methyl]-6-{[1-({3-[(1-methoxycyclopropyl)methyl]-6-[5-(trifluoromethyl)-4H-1,2,4-triazol-3-yl]-3H-imidazo[4,5-c]pyridin-2-yl}methyl)piperidin-4-yl]oxy}pyridine]
7 | 9.74 | Clc1ccc(Cc2nccc(OC3CCN(Cc4nc5cc(-c6nnn[nH]6)ccc5n4Cc4cn[nH]c4)CC3)n2)cc1 [Compound 153, 2-{[4-({2-[(4-chlorophenyl)methyl]pyrimidin-4-yl}oxy)piperidin-1-yl]methyl}-1-[(1H-pyrazol-4-yl)methyl]-5-(1H-1,2,3,4-tetrazol-5-yl)-1H-1,3-benzodiazole]
8 | 9.46 | Fc1cc(Cl)ccc1Cc1ccc(F)c(OC2CCN(Cc3nc4cc(-c5nnc(C(F)(F)F)[nH]5)ncc4n3C[C@@H]3CCO3)CC2)n1 [Compound 164a, 6-[(4-chloro-2-fluorophenyl)methyl]-3-fluoro-2-({1-[(3-{[(2S)-oxetan-2-yl]methyl}-6-[5-(trifluoromethyl)-4H-1,2,4-triazol-3-yl]-3H-imidazo[4,5-c]pyridin-2-yl)methyl]piperidin-4-yl}oxy)pyridine]
9 | 7.96 | Fc1cnc(Cc2ccc(Cl)cc2)nc1OC1CCN(Cc2nc3cc(-c4nnc(C(F)(F)F)[nH]4)ccc3n2C[C@H]2CCOC2)CC1 [Compound 147a, 2-{[4-({2-[(4-chlorophenyl)methyl]-5-fluoropyrimidin-4-yl}oxy)piperidin-1-yl]methyl}-1-{[(3R)-oxolan-3-yl]methyl}-5-[5-(trifluoromethyl)-4H-1,2,4-triazol-3-yl]-1H-1,3-benzodiazole]
10 | 9.24 | Fc1cc(Cl)ccc1Cc1cccc(OC2CCN(Cc3nc4cc(-c5nnc(C(F)(F)F)[nH]5)nnc4n3C[C@@H]3CCO3)CC2)n1 [Compound 181a, 2-[(4-chloro-2-fluorophenyl)methyl]-6-({1-[(7-{[(2S)-oxetan-2-yl]methyl}-3-[5-(trifluoromethyl)-4H-1,2,4-triazol-3-yl]-7H-imidazo[4,5-c]pyridazin-6-yl)methyl]piperidin-4-yl}oxy)pyridine]
11 | 10.28 | O=C(O)c1ccc2c(c1)nc(CN1CCC(Oc3ccnc(Cc4ccc(Cl)cc4)n3)CC1)n2C[C@@H]1CCO1 [Compound 134a, 2-{[4-({2-[(4-chlorophenyl)methyl]pyrimidin-4-yl}oxy)piperidin-1-yl]methyl}-1-{[(2S)-oxetan-2-yl]methyl}-1H-1,3-benzodiazole-5-carboxylic acid]
12 | 8.85 | FC(F)(F)c1nnc(-c2ccc3c(c2)nc(CN2CCC(Oc4ccnc(Cc5ccc(Cl)cc5)n4)CC2)n3C[C@H]2CCOC2)[nH]1 [Compound 148a, 2-{[4-({2-[(4-chlorophenyl)methyl]pyrimidin-4-yl}oxy)piperidin-1-yl]methyl}-1-{[(3R)-oxolan-3-yl]methyl}-5-[5-(trifluoromethyl)-4H-1,2,4-triazol-3-yl]-1H-1,3-benzodiazole]
13 | 9.43 | Fc1cc(Cc2cccc(OC3CCN(Cc4nc5cc(-c6nnc(C(F)(F)F)[nH]6)ncc5n4C[C@@H]4CCO4)CC3)n2)ccc1Cl [Compound 185a, 2-[(4-chloro-3-fluorophenyl)methyl]-6-({1-[(3-{[(2S)-oxetan-2-yl]methyl}-6-[5-(trifluoromethyl)-4H-1,2,4-triazol-3-yl]-3H-imidazo[4,5-c]pyridin-2-yl)methyl]piperidin-4-yl}oxy)pyridine]
14 | 8.74 | O=c1[nH]c(-c2ccc3c(c2)nc(C[C@H]2CC[C@H](Oc4nc(Cc5ccc(Cl)cc5)ncc4F)CC2)n3C[C@@H]2CCO2)no1 [Compound 172a, 3-(1-{[(2S)-oxetan-2-yl]methyl}-2-{[(1r,4r)-4-({2-[(4-chlorophenyl)methyl]-5-fluoropyrimidin-4-yl}oxy)cyclohexyl]methyl}-1H-1,3-benzodiazol-5-yl)-4,5-dihydro-1,2,4-oxadiazol-5-one]

Continued, compound first:

Row | Compound | pEC50
15 | O=c1[nH]c(-c2ccc3c(c2)nc(CN2CCC(Oc4ccnc(Cc5ccc(Cl)cc5)n4)CC2)n3C[C@@H]2CCO2)no1 [Compound 108a, 3-(2-{[4-({2-[(4-chlorophenyl)methyl]pyrimidin-4-yl}oxy)piperidin-1-yl]methyl}-1-{[(2S)-oxetan-2-yl]methyl}-1H-1,3-benzodiazol-5-yl)-4,5-dihydro-1,2,4-oxadiazol-5-one] | 9.42
16 | Cc1cncc(C(=O)Nc2ccc3c(c2)nc(CN2CCC(Oc4ccnc(Cc5ccc(Cl)cc5)n4)CC2)n3C[C@@H]2CCO2)c1 [Compound 101a, N-(2-{[4-({2-[(4-chlorophenyl)methyl]pyrimidin-4-yl}oxy)piperidin-1-yl]methyl}-1-{[(2S)-oxetan-2-yl]methyl}-1H-1,3-benzodiazol-5-yl)-5-methylpyridine-3-carboxamide] | 10.09
17 | CCc1ccc(C(=O)Nc2ccc3c(c2)nc(CN2CCC(Oc4ccnc(Cc5ccc(Cl)cc5F)n4)CC2)n3C[C@@H]2CCO2)cn1 [Compound 114a, N-(2-{[4-({2-[(4-chloro-2-fluorophenyl)methyl]pyrimidin-4-yl}oxy)piperidin-1-yl]methyl}-1-{[(2S)-oxetan-2-yl]methyl}-1H-1,3-benzodiazol-5-yl)-6-ethylpyridine-3-carboxamide] | 8.80
18 | Fc1cnc(Cc2ccc(Cl)cc2)nc1OC1CCN(Cc2nc3cc(-c4nnc(C(F)(F)F)[nH]4)cnc3n2C[C@@H]2CCO2)CC1 [Compound 121a, 2-[(4-chlorophenyl)methyl]-5-fluoro-4-({1-[(3-{[(2S)-oxetan-2-yl]methyl}-6-[5-(trifluoromethyl)-4H-1,2,4-triazol-3-yl]-3H-imidazo[4,5-b]pyridin-2-yl)methyl]piperidin-4-yl}oxy)pyrimidine] | 9.30
19 | O=C(Nc1ccc2c(c1)nc(CN1CCC(Oc3ccnc(Cc4ccc(Cl)cc4)n3)CC1)n2C[C@@H]1CCO1)c1cccnc1 [Compound 102a, N-(2-{[4-({2-[(4-chlorophenyl)methyl]pyrimidin-4-yl}oxy)piperidin-1-yl]methyl}-1-{[(2S)-oxetan-2-yl]methyl}-1H-1,3-benzodiazol-5-yl)pyridine-3-carboxamide] | 9.51
20 | O=C(Nc1ccc2c(c1)nc(CN1CCC(Oc3ccnc(Cc4ccc(Cl)cc4F)n3)CC1)n2C[C@@H]1CCO1)c1cccnc1 [Compound 111a, N-(2-{[4-({2-[(4-chloro-2-fluorophenyl)methyl]pyrimidin-4-yl}oxy)piperidin-1-yl]methyl}-1-{[(2S)-oxetan-2-yl]methyl}-1H-1,3-benzodiazol-5-yl)pyridine-3-carboxamide] | 10.05
